{
  "source": "patent US10472355B2",
  "about": "“Cancer treatment utilizing SP-141 to bind with MDM2 and act as an inhibitor of MDM2 expression” (Texas Tech University System, priority 2014, dated 2019)",
  "key": {"[1]": {"tested_on": "human breast cancer cell lines", "experiment": "Cell cycle distribution assay", "format": "cell-based", "design": "dose or concentration left out as unconfirmed", "conditions": "24 hours", "experimental": "(§1) MDA-MB-468 cells are more sensitive to SP-141 treatment at higher concentrations than MCF-7 and MCF-7 p53 KD cells.\n(§2) FIGS. 8-12 are presented toillustrate that SP-141 induces breast cancer cell death. In experiments conducted by the inventors, cells were exposed to various concentrations of SP-141 for 72 hours, using the MTT assay to evaluate the cell viability and IC50 value. FIG. 9 provides a photograph of such exposure for 24 hours using the colony formation assay. FIG. 10A illustrates a chart associated with 48 hours for the apoptosis assay and FIG. 10B illustrates a similar chart associated with 24 hours for the proliferation assay. FIG. 11 illustrates 24 hour for the cell cycle distribution assay. FIG. 12 illustrates a western blot analysis of the expression of MDM2 and proteins related to apoptosis and cell cycle arrest in human breast cancer cells. All these assays were performed in triplicate, and all the experiments were repeated at least three times (mean±s.e.m., n=9 for each data point, two-sided Student's t-test. *Po 0.01)."}, "[2]": {"tested_on": "MCF-7 cells (both p53 wt and p53 KD)", "experiment": "Proliferation assay", "format": "cell-based, human", "conditions": "0.5-mM concentration, 24 hours", "experimental": "as §1, §2"}, "[3]": {"tested_on": "MDA-MB-231-Luc breast cancer cells", "experiment": "Experimental metastasis assay", "format": "in vivo, nude mice", "conditions": "i.p. 20 mg/kg per day for 2 weeks; days 8 and 15", "experimental": "To validate the anti-metastatic effects of SP-141 in vivo, an experimental metastasis assay can be performed. MDA-MB-231-Luc breast cancer cells can be intravenously injected into a tail vein of nulnu mice. The animals are randomly divided into a treatment group and a control group after cell injection. SP-141 can be administered by i.p injection at doses of 20 mg/kg, 1 per day for 2 weeks.\n(§3) FIGS. 28-30 are provided to illustrate that SP-141 inhibits cell metastasis in vitro and in vivo. MDA-MB-231 cells were grown to confluence in a six-well plate, illustrated in FIG. 28. A scratch was made at experimental time zero, and then the cells were exposed to various concentrations of SP-141. The wells were imaged at different time points. All the experiments were repeated at least three times. The effects of SP-141 on the expression of EMT-related proteins in MDA-MB-231 cells is shown in the western blot analysis provided in FIG. 29. About 1×10^ 6 MDA-MB-231-Luc cells were intravenously injected into a tail vein of nude mice. SP-141 was administered by i.p. injection at doses of 20 mg kg, 1 per day, 5 days per week for 2 weeks. The luciferase signals in the mice were detected and photographed using an MS in vivo image system on days 1, 8, and 15, as shown in FIG. 30."}, "[4]": {"tested_on": "p53 wt MCF-7 cells", "experiment": "Apoptosis assay", "format": "cell-based, human", "conditions": "1-mM SP-141, 48 hours", "experimental": "as §2"}, "[5]": {"tested_on": "p53 KO MCF-7 cells", "experiment": "Apoptosis assay", "format": "cell-based, human", "conditions": "1-mM SP-141, 48 hours", "experimental": "as §2"}, "[6]": {"tested_on": "p53 mt MDA-MB-468 cells", "experiment": "Apoptosis assay", "format": "cell-based, human", "conditions": "1-mM SP-141, 48 hours", "experimental": "as §2"}, "[7]": {"target": "T1, MDM2 protein (Homo sapiens, UniProt Q00987)", "T1 sequence (Q00987 whole entry)": "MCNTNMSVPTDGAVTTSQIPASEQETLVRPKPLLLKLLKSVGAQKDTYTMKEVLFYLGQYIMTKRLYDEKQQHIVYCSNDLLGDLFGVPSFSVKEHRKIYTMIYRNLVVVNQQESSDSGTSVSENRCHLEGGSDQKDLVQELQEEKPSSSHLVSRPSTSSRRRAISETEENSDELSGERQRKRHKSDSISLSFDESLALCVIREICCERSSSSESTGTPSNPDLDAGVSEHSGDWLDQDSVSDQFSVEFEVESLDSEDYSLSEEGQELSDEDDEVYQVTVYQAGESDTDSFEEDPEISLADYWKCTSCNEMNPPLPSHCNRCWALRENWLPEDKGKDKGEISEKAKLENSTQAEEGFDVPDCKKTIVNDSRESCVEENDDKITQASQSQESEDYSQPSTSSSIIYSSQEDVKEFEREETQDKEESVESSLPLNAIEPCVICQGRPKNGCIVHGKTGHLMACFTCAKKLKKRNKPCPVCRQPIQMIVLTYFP", "experiment": "Biacore assay (MDM2 immobilized on CM5 sensor chip)", "conditions": "read-out: KD for binding to the MDM2 protein", "from_the_text": "(§4) The reduction is proportional to dose. Thus, SP-141 can occupy the p53-binding site on MDM2 as illustrated by FIG. 6. […] Thus, SP-141 serves as a specific MDM2 inhibitor with a high binding capacity for the MDM2 protein.\n(§5) FIG. 7A illustrates a chart illustrating % inhibition. This is illustrative of competitive binding to recombinant human MDM2 proteins using an FP-based binding assay. […] Similarly, FIG. 7B illustrates a chart or responses illustrative of competitive KD values of SP-141 to MDM2 as determined using the Biacore assay. The MDM2 protein was immobilized on a CM5 sensor chip. […] It is noteworthy that all the assays were performed in triplicate, and all the experiments were repeated at least three times."}, "[8]": {"tested_on": "MCF-7 xenograft tumors", "experiment": "MCF-7 xenograft tumor model in nude mice", "format": "in vivo", "experimental": "(§6) As evidence, SP-141 was administered to nude mice bearing MCF-7 and MDA-MB-468 xenograft tumors. SP-141 was administered by intraperitoneal (i.p.) injection at doses of 40 mg/kgn 1 per day for 42 and 30 days, respectively.\n(§7) FIGS. 13-16 are presented to illustrate that. SP-141 suppresses breast xenograft tumor growth in vivo. FIGS. 13A and 13B illustrate tumor mass in nude mice bearing MCF-7 and MDA-MB-468, respectively. The xenograft tumors were treated with SP-141, which was administered by i.p. injection at 40 mg/kg 1 per day, 5 days per week for 42 and 30 days, respectively. FIGS. 14A and 14B illustrate the tumors after they were removed at the end of the experiments. The mice were also monitored for changes in body weight as a surrogate marker for toxicity in both the MCF-7 (as shown in FIG. 15A) and MDA-MB-468 (as shown if FIG. 15B) xenograft models. At the termination of the experiments, H&E staining of the paraffin sections of some organs from the mice bearing MCF-7 xenograft tumors was performed. (Mean±s.e.m., n>10 for each data point, two-sided Student's t-test, *P<0.01)."}, "[9]": {"target": "T1, MDM2 protein", "experiment": "FP-based competitive binding assay", "from_the_text": "as §4, §5"}, "[10]": {"target": "GST-MDM2 (Homo sapiens, UniProt Q00987)", "sequence (Q00987 whole entry)": "as above", "experiment": "Biotin-avidin pull-down assay with biotinylated SP-141", "format": "binding", "conditions": "biotin-SP-141 conjugate, avidin beads; purified GST negative control", "from_the_text": "As illustrated in FIGS. 2 and 3.\nA western blot analysis is illustrated in FIG. 5. […] Purified GST was used as a negative control. The bound protein was detected using anti-MDM2 and anti-GST antibodies.\nThe bound protein was detected using anti-MDM2 antibody."}, "[11]": {"tested_on": "MDA-MB-231 human breast cancer cells", "experiment": "Wound healing assay (cell migration)", "format": "cell-based", "conditions": "0.1 or 0.2 mM SP-141, MDA-MB-231 cells", "experimental": "SP-141 inhibits cell migration in vitro and in vivo. A crucial component of tumor cell invasion is cell migration. A wound healing assay can be used to investigate the effect of SP-141 on cancer cell motility, using MDA-MB-231 human breast cancer cells. The cells can be treated with the vehicle, or with 0.1 or 0.2 mM of SP-141, in order to evaluate the cell migration into the wound made in the cell monolayer.\nas §3"}, "[12]": {"tested_on": "breast cancer cell lines", "experiment": "Colony formation assay", "format": "cell-based, human", "conditions": "24 hours exposure", "experimental": "as §2"}, "[13]": {"tested_on": "MDM2 protein in MCF-7 and MDA-MB-468 cells", "experiment": "MDM2 protein degradation (cycloheximide chase, western blot)", "format": "cell-based, human", "conditions": "0.5 mM SP-141 24 hours, then cycloheximide", "experimental": "SP-141 can also induce MDM2 protein degradation. Specifically. SP-141 can induce MDM2 inhibition in vitro and in vivo. […] The p53 protein was stabilized in MCF-7 cells, but not in the p53 mt […] cells.\nMCF-7 and MDA-MB-468 cells were treated with SP-141 (0.5 mM), and then exposed to cycloheximide (CHX, 15 mg ml 1), an inhibitor of protein synthesis. The graphs in FIG. 20 show the quantification of the western blot data. Cells were treated with SP-141 (0.5 mM) for 24 hours, and then exposed to a proteasome inhibitor, MG 132 (25 mM), for an additional 6 hours. The protein levels of MDM2 were detected with western blot analysis, as illustrated in FIG. 21. Further, cells were transfected with MDM2 and ubiquitin plasmids, followed by treatment with SP-141 for 24 hours. The cells were then exposed to MG132 (25 mM) for an additional 6 hours, and the lysates were subjected to immunoprecipitation with an MDM2 antibody. Cells were transfected with a wild-type MDM2 plasmid or mutant MDM2 plasmid without E3 ligase activity (C464A). After treatment with SP-141 for 24 hours, MDM2 levels were detected with western blot analysis, as illustrated in FIG. 23. Representative images of MDM2 immunofluorescence in control and SP-141 (1 mM)-treated cells are illustrated in FIG. 24. B-actin and DAPI were used as internal references. All the experiments were repeated three times."}, "[14]": {"tested_on": "MDM2 protein", "experiment": "Western blot of MDM2 expression in breast cancer cells", "format": "cell-based, human", "conditions": "multiple tested cell lines", "experimental": "SP-141 also effects MDM2 expression. […] In the MCF-7 (p53 wt) cells, the wild-type p53 protein level increased, in accordance with an expected inhibition of MDM2. […] SP-141 increases the expression of cleaved PARP and Bax and decreases the expression of Bcl-2 and Cyclin E in a p53-independent manner.\nas §2"}, "[15]": {"tested_on": "MDA-MB-468 xenograft tumors", "experiment": "MDA-MB-468 xenograft tumor model in nude mice", "format": "in vivo", "conditions": "i.p. 40 mg/kg per day", "experimental": "as §6, §7"}},
  "data": [
    {"compound": "COc1ccc2[nH]c3c(-c4cccc5ccccc45)nccc3c2c1", "note": "[SP-141, 6-methoxy-1-(naphthalen-1-yl)-9 H-pyrido[3,4-b]indole]", "values": [
      {"measurement": "Effect on cell cycle", "setting": "[1]", "result": "induces cell cycle arrest in the G2 phase"},
      {"measurement": "Effect on cell proliferation", "setting": "[2]", "result": "significant decrease in proliferation"},
      {"measurement": "Effect on metastasis (luciferase signals in lung tissues)", "setting": "[3]", "result": "decreases the metastasis of breast cancer cells"},
      {"measurement": "Increase of apoptotic index", "setting": "[4]", "result": 14, "unit": "fold"},
      {"measurement": "Increase of apoptotic index", "setting": "[5]", "result": 7, "unit": "fold"},
      {"measurement": "Increase of apoptotic index", "setting": "[6]", "result": 11, "unit": "fold"},
      {"measurement": "Kd", "setting": "[7]", "result": 43, "unit": "nM"},
      {"measurement": "Host toxicity monitored by changes in body weight", "setting": "[8]; MCF-7 model, i.p. 40 mg/kg per day, 42 days", "result": "no significant host toxicity"},
      {"measurement": "Inhibition of xenograft tumor growth", "setting": "[8]; MCF-7 xenograft, i.p. 40 mg/kg per day, day 42", "result": 82, "unit": "%"},
      {"measurement": "Organ abnormalities at necropsy / histological examination", "setting": "[8]; mice bearing MCF-7 xenograft tumors, 40 mg/kg per day", "result": "no gross organ (liver, lung, kidney, spleen, heart or brain) abnormalities"},
      {"measurement": "Ki", "setting": "[9]", "result": "28 ± 6", "unit": "nM"},
      {"measurement": "Binding to MDM2 versus GST (pull-down)", "setting": "[10]", "result": "binds to MDM2, but not GST"},
      {"measurement": "Effect on cell migration into the wound", "setting": "[11]", "result": "significantly decreased the cell migration"},
      {"measurement": "Effect on cancer cell colony formation", "setting": "[12]", "result": "inhibit cancer cell colony formation in a concentration-dependent manner"},
      {"measurement": "Degradation rate of the MDM2 protein", "setting": "[13]", "result": "increased the degradation rate of the MDM2 protein"},
      {"measurement": "MDM2 protein levels", "setting": "[14]", "result": "decrease in a concentration-dependent manner"},
      {"measurement": "Host toxicity monitored by changes in body weight", "setting": "[15]; MDA-MB-468 model, 30 days", "result": "no significant host toxicity"},
      {"measurement": "Inhibition of xenograft tumor growth", "setting": "[15]; MDA-MB-468 xenograft, day 30", "result": 80, "unit": "%"}
    ]}
  ]
}
